Source: patent publication US20060276390A1, “Combined treatments comprising synthetic peptide copolymers for preventing graft rejection” (YEDA RESEARCH AND DEVELOPMENT CO. LTD., priority 2003, published 2006)
Several values for one entry are separate records, joined by “and”; a condition that tells them apart may be missing. Identical values can stand only once. Entries after “also recorded” stand apart in the source; their conditions may differ. Like-named read-outs stand apart in the source and are kept apart here.

Experiments:
[1] = tested on: BALB/c recipient mice transplanted with skin grafts from C57BL donors; settings: for mean survival time (MST) of skin graft / prolongation of skin graft survival: FIG. 3 experiment
Protocol: BALB/c mice were transplanted with skin grafts from C57BL/6 donors. […] Grafts were considered rejected when no viable donor epidermis remained. At least 7 mice were tested in each group.
Skin transplantation is an established model to measure immune rejection. In this model recipient and donor mice were anesthetized, shaved and cleaned. Circular pieces of skin (1.0 to 1.3 cm in diameter) were cut from dorsal side of the donor mice and dorsally transplanted to recipient animals by the use of histoacryl (Braun, Melsungen, Germany). The grafts were covered with Nobecutane antiseptic spray bandage (Astra, Wedel, Germany). Mice were kept in separate cages and inspected daily. Grafts were considered rejected when no viable donor epidermis remained.
Three murine strain combinations: B10.D2→BALB/c in the H-2^d haplotype, C57BL→C3HSW in the H-2^b haplotype, and B10PL→PL/J in the H-2^u haplotype, were tested across minor histocompatibility barriers, and across major histocompatibility barriers transplantation was tested in C57BL→BALB/c in the H-2^b→H-2^d haplotype. These strain combinations were tested with Copolymer 1 both using skin and thyroid transplantations.
BALB/c recipient mice were transplanted with skin grafts originated in C57BL donors in day 0. GA (100 mg/kg, s.c.) was injected daily starting 2 weeks before transplantation. […] Rejection was considered positive when no viable donor epidermis remained.

[2] = tested on: Lewis rats transplanted with an accessory heart from allogeneic disparate BN donor rats; assay type: in vivo
Description: Lewis rats were transplanted with an accessory heart from the allogeneic disparate BN donor rats. […] Combination of pretreatment with GA and the respective doses of the immunosuppressants (open bars); Treatment with GA administered from the day of transplantation without pretreatment (striped bar). Cardiac allograft survival was inspected by daily monitoring palpation of the grafts. Grafts were considered rejected when no heart palpitations could be observed.

[3] = tested on: thyroid glands from C57BL mice transplanted in the kidney capsule of BALB/c mice; assay: Function of transplanted thyroids (I125 absorbance), C57BL→BALB/c model; assay type: in vivo, mouse
Protocol: (§1) In this transplantation model for HVG, thyroid glands from donor mice were transplanted in the kidney's capsules of recipient mice. One week later the transplanted mice were injected with ^125I, and the radioactivity of each kidney (the recipient or the untransplanted kidney) was measured after 20 hours. Δcpm was calculated by subtracting the ^125I absorbance of the untransplanted kidneys from the ^125I absorbance of the recipient kidneys in the same treatment. The mean function index (MFI) for treatment was calculated by dividing the mean Δcpm for the tested treatment by the mean Δcpm for the PBS treatment. P values were obtained by the ANOVA test. This assay indicates objectively and quantitatively not only the graft survival, but also the function (iodine absorbance) of the transplanted thyroid tissue (Isakov et al., 1979).
BALB/c recipient mice were transplanted in the kidney's capsules with thyroid glands from donor mice in day 0. Grafts were inspected daily. The function (iodine absorbance) of the transplanted thyroid tissue was examined 10 days after transplantation by measuring the iodine absorbance in the kidney.
Thyroid glands from C57BL mice were transplanted in the kidney capsule of BALB/c mice. Nine days after transplantation, mice were injected with 1 μcI^125, and the radioactivity of each kidney was measured 20 hr. later. MFI—denotes the mean function index, calculated as
MFI=mean Δcpm for the tested treatment/mean Δcpm for the PBS tested treatment

[4] = tested on: thyroid glands from B10.D2 donors transplanted in the kidney's capsules of BALB/c mice; assay: Function of transplanted thyroids (I125 absorbance), B10.D2→BALB/c model; assay type: in vivo, mouse; settings: for MFI (mean function index): fold over PBS
Protocol: as §1
(§2) The transplanted mice or rats were treated daily with Copolymer 1 at doses of 0.6-2.5 mg/day for mice and 25 mg/day for rats in PBS solution, starting 7 or 14 days before transplantation. In some cases, the first Cop 1 treatment was injected sc in ICFA as a depot dose.
To test the effect of Copolymer 1 treatment on the function of transplanted thyroids in the B10.D2→BALB/c model, thyroid glands from donors B10.D2 were transplanted in the kidney's capsules of BALB/c mice. After one week the transplanted mice were injected with I^125, and the radioactivity of each kidney was measured 20 hours later. A cpm was calculated by subtracting the I^125 absorbance of the untransplanted kidneys from the I^125 absorbance of the recipient kidneys in the same treatment. The mean function index (MFI) for each treatment was calculated by dividing the mean I^125 absorbance of (transplanted kidney—untransplanted kidney) in the tested treatment by the mean I^125 absorbance of (transplanted kidney—untransplanted kidney) in the PBS treatment, as follows: [formula]

[5] = tested on: BALB/c recipient mice transplanted with skin grafts from B10.D2 donors; assay: Skin graft rejection, B10.D2→BALB/c model; assay type: in vivo, mouse
Protocol: (§3) Mice were kept in separate cages and inspected daily.
as §2
To test the effect of Copolymer 1 treatment on skin graft rejection in the B10.D2→BALB/c model, BALB/c recipient mice were transplanted with skin grafts from B10.D2 donors and were treated daily with: PBS ip from day −7, Copolymer 1 (ip+sc) from day −7. Grafts were inspected daily.
Grafts were inspected daily. […] Thyroid glands from B10.D2 donors were transplanted in the kidney's capsules of BALB/c mice.

[6] = tested on: B10PL→PL/J thyroid graft; assay: Thyroid rejection (I125 absorbance), B10PL→PL/J; assay type: in vivo, mouse; settings: Cop 1
Protocol: as §1, §2

[7] = tested on: C57BL→C3H thyroid graft; assay: Thyroid rejection (I125 absorbance), C57BL→C3H (H-2b); assay type: in vivo, mouse; settings: Cop 1
Protocol: as §1, §2

[8] = tested on: B10PL→PL/J skin graft; assay: Skin graft rejection, B10PL→PL/J (H-2u); assay type: in vivo, mouse; settings: Cop 1
Protocol: as §3, §2

[9] = tested on: C57BL→C3HSW skin graft; assay: Skin graft rejection, C57BL→C3HSW (H-2b); assay type: in vivo, mouse; settings: Cop 1
Protocol: as §3, §2

[10] = FK 506 300 μg/day ip, 7 times from day −2
[11] = Cop 1 2.5 mg/mouse, Table 7 Part 1
[12] = Cop 1 2.5 mg/mouse, Table 7 Part 2
[13] = Cop 1, C57BL → BALB (H-2b → H-2d), Table 5
[14] = Cop 1 600 μg/day ip from day −7
[15] = Cop 1, another experiment (N=5)

For `C=CC[C@@H]1/C=C(\C)C[C@H](C)C[C@H](OC)[C@H]2O[C@@](O)(C(=O)C(=O)N3CCCC[C@H]3C(=O)O[C@H](/C(C)=C/[C@@H]3CC[C@@H](O)[C@H](OC)C3)[C@H](C)[C@@H](O)CC1=O)[C@H](C)C[C@@H]2OC` [FK 506, tacrolimus], the “mean survival time (MST) of skin graft” value ([1]; FK 506 5 mg/kg) was 9.5 days, the “prolongation of skin graft survival” value ([1]; FK 506 5 mg/kg) was 12% and the “mean survival time (MST) of skin graft” value ([1]; FK 506 10 mg/kg) was 13.8 days. The “prolongation of skin graft survival” value ([1]; FK 506 10 mg/kg) was 88%, the Prolongation ([1]; FK 506 1.25 mg/kg alone) was 8% and the “MST (Mean Graft Survival Time)” value ([1]; FK 506 1.25 mg/kg i.m. daily from 6 days before transplantation, alone) was 11.2 days. For the same compound, the “MST (Mean Graft Survival Time)” value ([1]; FK 506 2.5 mg/kg alone) was 11.8 days, the Prolongation ([1]; FK 506 2.5 mg/kg alone) was 13% and the “MST (Mean Graft Survival Time)” value ([1]; FK 506 5.0 mg/kg alone) was 12.7 days. For the same compound, the Prolongation ([1]; FK 506 5.0 mg/kg alone) was 22%, the “MST (Mean Graft Survival Time)” value ([1]; FK 506 10 mg/kg alone) was 16.0 days and the Prolongation ([1]; FK 506 10 mg/kg alone) was 54%. For the same compound, the mortality ([1]; higher dose, FK 506 10 mg/kg, average) was 20 % of the mice, the “toxic effect on the mice” value ([1]; mouse, in vivo, 10 mg/kg) was “considerable weight loss and weakness” and the Prolongation ([2]; FK 506 1.25 mg/kg alone) was 15.3 days. For the same compound, the “MST (Mean Graft Survival Time) of heart graft” value (shortened to “MST … of heart graft”) ([2]; FK 506 1.25 mg/kg daily from 6 days before transplantation, alone, 1.25 mg/kg) was 22.5 days and 22.5 ± 0.9 days, the Prolongation ([2]; FK 506 2.5 mg/kg alone) was 18.3 days and the “MST … of heart graft” value ([2]; FK 506 2.5 mg/kg alone, 2.5 mg/kg) was 25.5 days and 25.5 ± 1.4 days. The toxicity in rats ([2]; FK 506 2.5 mg/kg, 2.5 mg/kg) was “toxic consequences”, the “death of rats after number of daily injections” value ([2]; FK506 5 mg/kg) was 6-8 daily injections and the toxicity in rats ([2]; FK 506 5.0 mg/kg, 5 mg/kg) was “toxic consequences; also recorded: toxic all rats died”. The MFI ([3]; FK506 1.25 mg/kg) was 3.1, the “Mean I^125 Absorbance, Transplanted kidney” value (“Mean I^125 Absorbance” below) ([3]; FK506 1.25 mg/kg) was 928 ± 165 cpm and the Δcpm ([3]; FK506 1.25 mg/kg) was 327 cpm. The MFI ([3]; FK506 2.5 mg/kg) was 4.1, the “Mean I^125 Absorbance” value ([3]; FK506 2.5 mg/kg) was 772 ± 519 cpm and the Δcpm ([3]; FK506 2.5 mg/kg) was 431 cpm. For the same compound, the MFI ([3]; FK506 5 mg/kg) was 3.7, the “Mean I^125 Absorbance” value ([3]; FK506 5 mg/kg) was 1167 ± 636 cpm and the Δcpm ([3]; FK506 5 mg/kg) was 383 cpm. For the same compound, the “Mean I^125 Absorption, Transplanted Kidney” value (shortened to “Mean I^125 Absorption”) [4, 10] was 3117 cpm, the “Δcpm (transplanted minus untransplanted kidney)” value [4, 10] was 2424 cpm and the “MFI (mean function index)” value ([4]; FK 506 300 μg/day) was 3.1. The “MST (Mean Survival Time) of skin graft” value ([5]; FK506 300 μg/day ip, 7 injections from day −2) was 21.2 days and the “MST (Mean Survival Time) of skin graft” value ([5]; FK506 300 μg/day ip, 7 injections from day −2, listed as FK506) was 21.2 ± 4.3 days.
glatiramer acetate [Cop 1] was tested, and the “MST (Mean Survival Time) of skin graft” value ([1]; Cop 1, listed as printed C57BL→C3HSW (H-2b → H-2d)) was 18.5 ± 3.3, the “prolongation of skin graft survival” value ([1]; GA 100 mg/kg) was 27% and the “mean survival time (MST) of skin graft” value ([1]; GA 100 mg/kg, untreated control 8.5 days) was 10.8 days. For the same compound, the Prolongation ([1]; GA 100 mg/kg alone, Table 6A) was 10%, the “MST (Mean Graft Survival Time)” value ([1]; GA 100 mg/kg alone, Table 6B) was 11.5 days and the Prolongation ([1]; GA 100 mg/kg alone, Table 6B) was 11%. The appearance of mice ([1]; GA 100 mg/kg injected daily) was “looked completely healthy”, the “MST (Mean Graft Survival Time)” value ([1]; GA 100 mg/kg s.c. daily from 2 weeks before transplantation, alone, Table 6A) was 12.3 days and the Prolongation ([2]; GA 100 mg/kg alone, vs untreated control) was 0.4 days. The “MST … of heart graft” value ([2]; GA 100 mg/kg daily from 2 weeks before transplantation, alone) was 7.6 ± 0.5 days, the “effect on heart graft survival” value ([2]; GA treatment by itself) was “did not prolong graft survival” and the MFI [3, 11] was 3.5. For the same compound, the “Mean I^125 Absorbance” value [3, 11] was 439 ± 31 cpm, the Δcpm [3, 11] was 122 cpm and the MFI [3, 12] was 2.4. For the same compound, the “Mean I^125 Absorbance” value [3, 12] was 671 ± 24 cpm, the Δcpm [3, 12] was 247 cpm and the “MFI (mean function index)” value [3, 13] was 3.0. The “Mean I^125 Absorption” value [3, 13] was 10759 cpm, the Δcpm [3, 13] was 9835 cpm and the “MFI (mean function index)” value [6] was 2.5. The “Mean I^125 Absorption” value [6] was 2009 cpm, the Δcpm [6] was 1677 cpm and the “MFI (mean function index)” value [7] was 2.3. The “Mean I^125 Absorption” value [7] was 1643 cpm, the Δcpm [7] was 1362 cpm and the “Mean I^125 Absorption” value [4, 14] was 2901 cpm. The “Δcpm (transplanted minus untransplanted kidney)” value [4, 14] was 2451 cpm, the “MFI (mean function index)” value ([4]; Cop 1 600 ug/day, another experiment (N=5)) was 5.2 and the “MFI (mean function index)” value ([4]; Cop 1 600 μg/day) was 3.2. The “Mean I^125 Absorption” value [4, 15] was 1035 cpm, the Δcpm [4, 15] was 898 cpm and the “MST (Mean Survival Time) of skin graft” value [8] was 17.6 ± 5.1. The “MST (Mean Survival Time) of skin graft” value [9] was 17.7 ± 2.1, the “MST (Mean Survival Time) of skin graft” value ([5]; Cop 1 300 μg/day ip+sc daily from day −7) was 20.4 ± 4.5 days and the “MST (Mean Survival Time) of skin graft” value ([5]; Cop 1 300 μg/day ip+sc daily from day −7, listed as Copolymer 1) was 20.4 days. The “MST (Mean Survival Time) of skin graft” value ([5]; Cop 1 600 μg/day ip+sc daily from day −7) was 20.6 days and 20.6 ± 3.3 days and the “MST (Mean Survival Time) of skin graft” value ([5]; Cop 1 600 μg/day ip+sc daily from day −7, listed as Copolymer 1) was 20.6 days.
